# Results: PubChem BioAssay (NCI)
#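 GI50 is the concentration that inhibits growth by half. TGI marks complete inhibition of growth.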
# Experiments:
# Experiment in all cases: inhibition of tumour cell growth, NCI panel, 384-well format
# 786-0 renal = test system: 786-0 renal
# A498 renal = test system: A498 renal
# A549 NSCLC = test system: A549 NSCLC
# ACHN renal = test system: ACHN renal
# CAKI-1 renal = test system: CAKI-1 renal
# CCRF-CEM leukemia = test system: CCRF-CEM leukemia
# COLO 205 colon = test system: COLO 205 colon
# DU-145 prostate = test system: DU-145 prostate
# EKVX NSCLC = test system: EKVX NSCLC
# HCC-2998 colon = test system: HCC-2998 colon
# HCT-15 colon = test system: HCT-15 colon
# HL-60(TB) leukemia = test system: HL-60(TB) leukemia
# HOP-62 NSCLC = test system: HOP-62 NSCLC
# HOP-92 NSCLC = test system: HOP-92 NSCLC
# HS 578T breast = test system: HS 578T breast
# HT29 colon = test system: HT29 colon
# K-562 leukemia = test system: K-562 leukemia
# KM12 colon = test system: KM12 colon
# LOX IMVI melanoma = test system: LOX IMVI melanoma
# M14 melanoma = test system: M14 melanoma
# MALME-3M melanoma = test system: MALME-3M melanoma
# MDA-MB-231 breast = test system: MDA-MB-231 breast
# MDA-MB-435 melanoma = test system: MDA-MB-435 melanoma
# MDA-MB-468 breast = test system: MDA-MB-468 breast
# MOLT-4 leukemia = test system: MOLT-4 leukemia
# NCI-H226 lung = test system: NCI-H226 lung
# NCI-H23 lung = test system: NCI-H23 lung
# NCI-H322M lung = test system: NCI-H322M lung
# NCI-H460 NSCLC = test system: NCI-H460 NSCLC
# NCI-H522 lung = test system: NCI-H522 lung
# NCI/ADR-RES ovarian = test system: NCI/ADR-RES ovarian
# OVCAR-3 ovarian = test system: OVCAR-3 ovarian
# PC-3 prostate = test system: PC-3 prostate
# RPMI-8226 leukemia = test system: RPMI-8226 leukemia
# RXF 393 renal = test system: RXF 393 renal
# SF-268 CNS = test system: SF-268 CNS
# SF-295 CNS = test system: SF-295 CNS
# SF-539 CNS = test system: SF-539 CNS
# SK-MEL-2 melanoma = test system: SK-MEL-2 melanoma
# SK-MEL-28 melanoma = test system: SK-MEL-28 melanoma
# SK-OV-3 ovarian = test system: SK-OV-3 ovarian
# SN12C renal = test system: SN12C renal
# SR leukemia = test system: SR leukemia
# T-47D breast = test system: T-47D breast
# TK-10 renal = test system: TK-10 renal
# U251 glioblastoma = test system: U251 glioblastoma
# UACC-62 melanoma = test system: UACC-62 melanoma
structure (smiles),measurement,setting,value
C[C@]12CCCN1CC1=NNC(=O)c3cc(F)cc4[nH]c2c1c34,GI50,786-0 renal,29 µM
same,TGI,786-0 renal,> 80.9 µM
same,GI50,A498 renal,18.4 µM
same,TGI,A498 renal,49 µM
same,GI50,A549 NSCLC,29.1 µM
same,TGI,A549 NSCLC,> 100 µM
same,GI50,ACHN renal,24 µM
same,TGI,ACHN renal,> 76.2 µM
same,GI50,CAKI-1 renal,18.1 µM
same,TGI,CAKI-1 renal,69.4 µM
same,GI50,CCRF-CEM leukemia,14.4 µM
same,TGI,CCRF-CEM leukemia,27.8 µM
same,GI50,COLO 205 colon,17.8 µM
same,TGI,COLO 205 colon,45.1 µM
same,GI50,DU-145 prostate,27.9 µM
same,TGI,DU-145 prostate,80 µM
same,GI50,EKVX NSCLC,20.2 µM
same,TGI,EKVX NSCLC,51.6 µM
same,GI50,HCC-2998 colon,9.2 µM
same,TGI,HCC-2998 colon,27.5 µM
same,GI50,HCT-15 colon,32 µM
same,TGI,HCT-15 colon,> 95.3 µM
same,GI50,HL-60(TB) leukemia,15.6 µM
same,TGI,HL-60(TB) leukemia,29.1 µM
same,GI50,HOP-62 NSCLC,10.9 µM
same,TGI,HOP-62 NSCLC,45.6 µM
same,GI50,HOP-92 NSCLC,18.4 µM
same,TGI,HOP-92 NSCLC,> 60.9 µM
same,GI50,HS 578T breast,13.6 µM
same,TGI,HS 578T breast,30.1 µM
same,GI50,HT29 colon,22.8 µM
same,TGI,HT29 colon,74.7 µM
same,GI50,K-562 leukemia,38.6 µM
same,TGI,K-562 leukemia,> 100 µM
same,GI50,KM12 colon,13.2 µM
same,TGI,KM12 colon,42.3 µM
same,GI50,LOX IMVI melanoma,16.3 µM
same,TGI,LOX IMVI melanoma,60.4 µM
same,GI50,M14 melanoma,18.3 µM
same,TGI,M14 melanoma,43.4 µM
same,GI50,MALME-3M melanoma,34.4 µM
same,TGI,MALME-3M melanoma,83.6 µM
same,GI50,MDA-MB-231 breast,13.6 µM
same,TGI,MDA-MB-231 breast,60.1 µM
same,GI50,MDA-MB-435 melanoma,42.4 µM
same,TGI,MDA-MB-435 melanoma,> 100 µM
same,GI50,MDA-MB-468 breast,3.57 µM
same,TGI,MDA-MB-468 breast,18.8 µM
same,GI50,MOLT-4 leukemia,2.48 µM
same,TGI,MOLT-4 leukemia,10.5 µM
same,GI50,NCI-H226 lung,14.8 µM
same,TGI,NCI-H226 lung,50.2 µM
same,GI50,NCI-H23 lung,15.4 µM
same,TGI,NCI-H23 lung,35.5 µM
same,GI50,NCI-H322M lung,23.4 µM
same,TGI,NCI-H322M lung,52.5 µM
same,GI50,NCI-H460 NSCLC,4.64 µM
same,TGI,NCI-H460 NSCLC,20.6 µM
same,GI50,NCI-H522 lung,16.8 µM
same,TGI,NCI-H522 lung,44.6 µM
same,GI50,NCI/ADR-RES ovarian,20.9 µM
same,TGI,NCI/ADR-RES ovarian,75 µM
same,GI50,OVCAR-3 ovarian,14 µM
same,TGI,OVCAR-3 ovarian,39.9 µM
same,GI50,PC-3 prostate,20 µM
same,TGI,PC-3 prostate,> 80.7 µM
same,GI50,RPMI-8226 leukemia,10.5 µM
same,TGI,RPMI-8226 leukemia,22.9 µM
same,GI50,RXF 393 renal,12.8 µM
same,TGI,RXF 393 renal,30.9 µM
same,GI50,SF-268 CNS,14.5 µM
same,TGI,SF-268 CNS,31.6 µM
same,GI50,SF-295 CNS,10.7 µM
same,TGI,SF-295 CNS,51.9 µM
same,GI50,SF-539 CNS,14.2 µM
same,TGI,SF-539 CNS,33.9 µM
same,GI50,SK-MEL-2 melanoma,20.4 µM
same,TGI,SK-MEL-2 melanoma,41.6 µM
same,GI50,SK-MEL-28 melanoma,26.1 µM
same,TGI,SK-MEL-28 melanoma,81.3 µM
same,GI50,SK-OV-3 ovarian,35.5 µM
same,TGI,SK-OV-3 ovarian,> 100 µM
same,GI50,SN12C renal,13.1 µM
same,TGI,SN12C renal,35 µM
same,GI50,SR leukemia,1.27 µM
same,TGI,SR leukemia,2.58 µM
same,GI50,T-47D breast,31.7 µM
same,TGI,T-47D breast,> 86.3 µM
same,GI50,TK-10 renal,24.1 µM
same,TGI,TK-10 renal,73.9 µM
same,GI50,U251 glioblastoma,13.6 µM
same,TGI,U251 glioblastoma,> 79.2 µM
same,GI50,UACC-62 melanoma,11.7 µM
same,TGI,UACC-62 melanoma,28.1 µM
